Source: patent US8106055B2, “Substituted amide compounds” (Gruenenthal GmbH, priority 2007, dated 2012)

What was measured:
[1] = biological target: T1, serotonin (5-HT) reuptake (Rattus norvegicus, UniProt P31652); experiment: Inhibition of serotonin (5HT) reuptake in synaptosomes from rat brain; type: biochemical; details: test concentration of 10 μM; read-out: 5-HT (inhibition of reuptake of serotonin, % inhibition)
T1 construct: synaptosomes are freshly isolated from areas of the rat brain; from tissue; host or cells: rat brain synaptosomes (P2 fraction)
T1 sequence (P31652 whole entry): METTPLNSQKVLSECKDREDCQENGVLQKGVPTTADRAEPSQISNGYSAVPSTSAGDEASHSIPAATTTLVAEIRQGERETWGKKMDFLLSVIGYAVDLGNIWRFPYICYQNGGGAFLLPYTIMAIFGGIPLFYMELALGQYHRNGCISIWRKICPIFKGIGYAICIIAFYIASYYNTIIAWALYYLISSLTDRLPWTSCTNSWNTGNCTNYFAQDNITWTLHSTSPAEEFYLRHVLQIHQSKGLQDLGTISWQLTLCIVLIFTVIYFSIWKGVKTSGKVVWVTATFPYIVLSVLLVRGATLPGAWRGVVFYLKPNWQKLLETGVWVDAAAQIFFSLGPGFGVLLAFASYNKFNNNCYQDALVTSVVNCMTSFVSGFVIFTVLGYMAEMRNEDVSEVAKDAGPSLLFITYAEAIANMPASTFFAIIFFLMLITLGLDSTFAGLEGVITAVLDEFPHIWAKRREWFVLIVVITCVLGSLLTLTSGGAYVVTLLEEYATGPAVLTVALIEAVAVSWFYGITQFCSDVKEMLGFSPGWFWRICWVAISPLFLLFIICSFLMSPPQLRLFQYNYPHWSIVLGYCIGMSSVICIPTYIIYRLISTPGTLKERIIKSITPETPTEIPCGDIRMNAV
How it was run: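 Compounds screened at 10 μM and reported as percent inhibition of serotonin uptake. Uptake measured in a freshly prepared P2 synaptosomal fraction from rat brain.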

[2] = biological target: T2, human μ opiate receptor (Homo sapiens, UniProt P35372); experiment: Affinity for the human μ opiate receptor ([3H]-naloxone displacement, CHO-K1 receptor membrane preparation, SPA); type: binding; details: test concentration of 1 μM; read-out: μ (binding on the μ opioid receptor, % inhibition)
T2 construct: purchased PerkinElmer Life Sciences, Zaventem, Belgium RB-HOM; host or cells: CHO-K1 cells (membrane preparation)
T2 sequence (P35372 whole entry): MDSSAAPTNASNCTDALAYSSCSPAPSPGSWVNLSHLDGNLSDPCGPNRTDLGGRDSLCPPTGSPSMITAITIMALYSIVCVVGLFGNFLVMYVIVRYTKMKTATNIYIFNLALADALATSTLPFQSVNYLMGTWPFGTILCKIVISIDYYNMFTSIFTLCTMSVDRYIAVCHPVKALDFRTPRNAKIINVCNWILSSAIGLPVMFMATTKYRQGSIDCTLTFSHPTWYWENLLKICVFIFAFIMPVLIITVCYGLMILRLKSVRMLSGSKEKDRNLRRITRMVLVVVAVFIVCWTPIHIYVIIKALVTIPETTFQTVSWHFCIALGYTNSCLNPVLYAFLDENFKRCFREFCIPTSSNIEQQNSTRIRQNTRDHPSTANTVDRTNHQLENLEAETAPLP
How it was run: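 SPA, CHO-K1 hμ membranes; 1 nmol/l [3H]-naloxone; Tris-HCl 50 mmol/l + 0.06% BSA; 90 min RT; NSB with 100 μmol/l naloxone; β-counting. Readout: % inhibition of specific binding at 1 μM test compound.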

Question: For `COc1cc(C)c(S(=O)(=O)N2CCN(CCOCC(=O)NC3CCC(C(c4ccccc4)N(C)C)CC3)CC2)c(C)c1C` (centres unmarked) [Example 20, N-(4-((dimethylamino)(phenyl)methyl)cyclohexyl)-2-(2-(4-(4-methoxy-2,3,6-trimethylphenylsulfonyl)piperazin-1-yl)ethoxy)acetamide], which inhibition at 10 µM [1] is on record?
Answer: The inhibition at 10 µM was 96%.

Question: What about the inhibition at 1 µM [2] of the same compound?
Answer: Its inhibition at 1 µM is 97%.

Question: Which inhibition at 10 µM [1] does the source give for `CN(C)C(c1cccs1)C1CCC(CCNC(=O)COC2CCN(S(=O)(=O)c3ccc(Cl)cc3Cl)C2)CC1` (centres unmarked) [Example 21, 2-(1-(2,4-dichlorophenylsulfonyl)pyrrolidin-3-yloxy)-N-(2-(4-((dimethylamino)(thiophen-2-yl)methyl)cyclohexyl)ethyl)acetamide] here?
Answer: The inhibition at 10 µM was 94%.

Question: What about the inhibition at 1 µM [2] of the same compound?
Answer: The inhibition at 1 µM was 97%.

Question: `COc1ccc(S(=O)(=O)N2CCC(OCC(=O)NCC3CCC(C(c4ccccc4)N(C)C)CC3)C2)cc1OC` (centres unmarked) [Example 22, 2-(1-(3,4-dimethoxyphenylsulfonyl)pyrrolidin-3-yloxy)-N-((4-((dimethylamino)(phenyl)methyl)cyclohexyl)methyl)acetamide] was tested. Which inhibition at 10 µM [1] did it give?
Answer: Its inhibition at 10 µM is 87%.

Question: What about the inhibition at 1 µM [2] of the same compound?
Answer: Its inhibition at 1 µM is 97%.

Question: For `COc1ccc(S(=O)(=O)N2CCC(OCC(=O)NCC3CCC(C(c4cccs4)N(C)C)CC3)C2)cc1OC` (centres unmarked) [Example 23, 2-(1-(3,4-dimethoxyphenylsulfonyl)pyrrolidin-3-yloxy)-N-((4-((dimethylamino)(thiophen-2-yl)methyl)cyclohexyl)methyl)acetamide], which inhibition at 10 µM [1] is on record?
Answer: Its inhibition at 10 µM is 82%.

Question: And the inhibition at 1 µM [2]?
Answer: The inhibition at 1 µM was 97%.

Question: `CN(C)C(c1cccs1)C1CCC(CNC(=O)COC2CCN(S(=O)(=O)c3cccc(C(F)(F)F)c3)C2)CC1` (centres unmarked) [Example 25, N-((4-((dimethylamino)(thiophen-2-yl)methyl)cyclohexyl)methyl)-2-(1-(3-(trifluoromethyl)phenylsulfonyl)pyrrolidin-3-yloxy)acetamide] was tested. Which inhibition at 10 µM [1] did it give?
Answer: Its inhibition at 10 µM is 82%.

Question: What about the inhibition at 1 µM [2] of the same compound?
Answer: Its inhibition at 1 µM is 97%.

Question: `Cc1cc(C)c(S(=O)(=O)N2CCC(OCC(=O)NCC3CCC(C(c4ccccc4)N(C)C)CC3)C2)c(C)c1` (centres unmarked) [Example 26, N-((4-((dimethylamino)(phenyl)methyl)cyclohexyl)methyl)-2-(1-(mesitylsulfonyl)pyrrolidin-3-yloxy)acetamide] was tested. Which inhibition at 10 µM [1] did it give?
Answer: Its inhibition at 10 µM is 83%.

Question: And the inhibition at 1 µM [2]?
Answer: The inhibition at 1 µM was 97%.

Question: For `Cc1cc(C)c(S(=O)(=O)N2CCC(OCC(=O)NCC3CCC(C(c4cccs4)N(C)C)CC3)C2)c(C)c1` (centres unmarked) [Example 27, N-((4-((dimethylamino)(thiophen-2-yl)methyl)cyclohexyl)methyl)-2-(1-(mesitylsulfonyl)pyrrolidin-3-yloxy)acetamide], which inhibition at 10 µM [1] is on record?
Answer: Its inhibition at 10 µM is 84%.

Question: And the inhibition at 1 µM [2]?
Answer: The inhibition at 1 µM was 97%.

Question: `CN(C)C(c1cccs1)C1CCC(NC(=O)COC2CCN(S(=O)(=O)c3ccc(F)cc3)C2)CC1` (centres unmarked) [Example 28, N-(4-((dimethylamino)(thiophen-2-yl)methyl)cyclohexyl)-2-(1-(4-fluorophenylsulfonyl)pyrrolidin-3-yloxy)acetamide] was tested. Which inhibition at 10 µM [1] did it give?
Answer: Its inhibition at 10 µM is 76%.

Question: What about the inhibition at 1 µM [2] of the same compound?
Answer: Its inhibition at 1 µM is 97%.

Question: `COc1cc(C)c(S(=O)(=O)N2CCCC(OCC(=O)NCC3CCC(C(c4ccccc4)N(C)C)CC3)C2)c(C)c1C` (centres unmarked) [Example 29, N-((4-((dimethylamino)(phenyl)methyl)cyclohexyl)methyl)-2-(1-(4-methoxy-2,3,6-trimethylphenylsulfonyl)piperidin-3-yloxy)acetamide] was tested. Which inhibition at 10 µM [1] did it give?
Answer: The inhibition at 10 µM was 93%.

Question: And the inhibition at 1 µM [2]?
Answer: The inhibition at 1 µM was 97%.

Question: How did the inhibition at 10 µM [1] turn out when `COc1ccc(S(=O)(=O)N2CCCCC2COCC(=O)NCCC2CCC(C(c3cccs3)N(C)C)CC2)cc1` (centres unmarked) [Example 30, N-(2-(4-((dimethylamino)(thiophen-2-yl)methyl)cyclohexyl)ethyl)-2-((1-(4-methoxyphenylsulfonyl)piperidin-2-yl)methoxy)acetamide] was run?
Answer: The inhibition at 10 µM was 98%.

Question: And the inhibition at 1 µM [2]?
Answer: The inhibition at 1 µM was 97%.

Question: How did the inhibition at 10 µM [1] turn out when `CN(C)C(c1cccs1)C1CCC(CNC(=O)COC2CCCCC2N(C)S(=O)(=O)c2ccc(Cl)c(Cl)c2)CC1` (centres unmarked) [Example 31, 2-(2-(3,4-dichloro-N-methylphenylsulfonamido)cyclohexyloxy)-N-((4-((dimethylamino)(thiophen-2-yl)methyl)cyclohexyl)methyl)acetamide] was run?
Answer: Its inhibition at 10 µM is 88%.

Question: And the inhibition at 1 µM [2]?
Answer: The inhibition at 1 µM was 97%.

Question: `CN(C)C(c1cccs1)C1CCC(CCNC(=O)COCCN(C)S(=O)(=O)c2cccc(C(F)(F)F)c2)CC1` (centres unmarked) [Example 32, N-(2-(4-((dimethylamino)(thiophen-2-yl)methyl)cyclohexyl)ethyl)-2-(2-(N-methyl-3-(trifluoromethyl)phenylsulfonamido)ethoxy)acetamide] was tested. Which inhibition at 10 µM [1] did it give?
Answer: The inhibition at 10 µM was 97%.

Question: And the inhibition at 1 µM [2]?
Answer: The inhibition at 1 µM was 97%.

Question: What does the source list for `CN(C)C(c1ccccc1)C1CCC(NC(=O)COCCN(C)S(=O)(=O)c2ccc(Cl)cc2Cl)CC1` (centres unmarked) [Example 33, 2-(2-(2,4-dichloro-N-methylphenylsulfonamido)ethoxy)-N-(4-((dimethylamino)(phenyl)methyl)cyclohexyl)acetamide]?
Answer: inhibition at 10 µM [1]: 73%; inhibition at 1 µM [2]: 49%

Question: `CN(C)C(c1ccccc1)C1CCC(NC(=O)COCCN(C)S(=O)(=O)c2c(F)c(F)c(F)c(F)c2F)CC1` (centres unmarked) [Example 136, N-(4-((dimethylamino)(phenyl)methyl)cyclohexyl)-2-(2-(2,3,4,5,6-pentafluoro-N-methylphenylsulfonamido)ethoxy)acetamide] was tested. Which inhibition at 10 µM [1] did it give?
Answer: The inhibition at 10 µM was 83%.

Question: What about the inhibition at 1 µM [2] of the same compound?
Answer: Its inhibition at 1 µM is 89%.

Question: Which results are given for `COc1cc(C)c(S(=O)(=O)N(C)CCOCC(=O)NCC2CCC(C(c3ccccc3)N(C)C)CC2)c(C)c1` (centres unmarked) [Example 137, N-((4-((dimethylamino)(phenyl)methyl)cyclohexyl)methyl)-2-(2-(4-methoxy-N,2,6-trimethylphenylsulfonamido)ethoxy)acetamide]?
Answer: inhibition at 10 µM [1]: 89%; inhibition at 1 µM [2]: 89%

Question: `CN(C)C(c1cccs1)C1CCC(CCNC(=O)COC2CCN(S(=O)(=O)c3ccc(F)cc3)C2)CC1` (centres unmarked) [Example 138, N-(2-(4-((dimethylamino)(thiophen-2-yl)methyl)cyclohexyl)ethyl)-2-(1-(4-fluorophenylsulfonyl)pyrrolidin-3-yloxy)acetamide] was tested. Which inhibition at 10 µM [1] did it give?
Answer: Its inhibition at 10 µM is 98%.

Question: What about the inhibition at 1 µM [2] of the same compound?
Answer: Its inhibition at 1 µM is 87%.

Question: Which results are given for `CN(C)C(c1cccc(F)c1)C1CCC(NC(=O)COC2CCN(S(=O)(=O)c3cccc(C(F)(F)F)c3)C2)CC1` (centres unmarked) [Example 139, N-(4-((dimethylamino)(3-fluorophenyl)methyl)cyclohexyl)-2-(1-(3-(trifluoromethyl)phenylsulfonyl)pyrrolidin-3-yloxy)acetamide]?
Answer: inhibition at 10 µM [1]: 79%; inhibition at 1 µM [2]: 83%

Question: How did the inhibition at 10 µM [1] turn out when `Cc1cc(C)c(S(=O)(=O)N2CCC(OCC(=O)NC3CCC(C(c4cccc(F)c4)N(C)C)CC3)C2)c(C)c1` (centres unmarked) [Example 140, N-(4-((dimethylamino)(3-fluorophenyl)methyl)cyclohexyl)-2-(1-(mesitylsulfonyl)pyrrolidin-3-yloxy)acetamide] was run?
Answer: The inhibition at 10 µM was 72%.

Question: What about the inhibition at 1 µM [2] of the same compound?
Answer: Its inhibition at 1 µM is 83%.

Question: With `Cc1cc(C)c(S(=O)(=O)N2CCC(OCC(=O)NCC3CCC(C(c4cccc(F)c4)N(C)C)CC3)C2)c(C)c1` (centres unmarked) [Example 141, N-((4-((dimethylamino)(3-fluorophenyl)methyl)cyclohexyl)methyl)-2-(1-(mesitylsulfonyl)pyrrolidin-3-yloxy)acetamide] as the compound, how does the inhibition at 10 µM [1] read?
Answer: The inhibition at 10 µM was 80%.

Question: What about the inhibition at 1 µM [2] of the same compound?
Answer: Its inhibition at 1 µM is 88%.

Question: How did the inhibition at 10 µM [1] turn out when `COc1ccc(S(=O)(=O)N(C)CCOCC(=O)NCC2CCC(C(c3cccs3)N(C)C)CC2)cc1` (centres unmarked) [Example 142, N-((4-((dimethylamino)(thiophen-2-yl)methyl)cyclohexyl)methyl)-2-(2-(4-methoxy-N-methylphenylsulfonamido)ethoxy)acetamide] was run?
Answer: Its inhibition at 10 µM is 70%.

Question: And the inhibition at 1 µM [2]?
Answer: The inhibition at 1 µM was 89%.

Question: What does the source list for `COc1cc(C)c(S(=O)(=O)N2CCC(OCC(=O)NCC3CCC(C(c4ccccc4)N(C)C)CC3)CC2)c(C)c1C` (centres unmarked) [Example 143, N-((4-((dimethylamino)(phenyl)methyl)cyclohexyl)methyl)-2-(1-(4-methoxy-2,3,6-trimethylphenylsulfonyl)piperidin-4-yloxy)acetamide]?
Answer: inhibition at 10 µM [1]: 93%; inhibition at 1 µM [2]: 89%

Question: How did the inhibition at 10 µM [1] turn out when `COc1cc(C)c(S(=O)(=O)N2CCCC(OCC(=O)NC3CCC(C(c4cccs4)N(C)C)CC3)C2)c(C)c1C` (centres unmarked) [Example 144, N-(4-((dimethylamino)(thiophen-2-yl)methyl)cyclohexyl)-2-(1-(4-methoxy-2,3,6-trimethylphenylsulfonyl)piperidin-3-yloxy)acetamide] was run?
Answer: Its inhibition at 10 µM is 87%.

Question: And the inhibition at 1 µM [2]?
Answer: The inhibition at 1 µM was 89%.

Question: Which inhibition at 10 µM [1] does the source give for `COc1cc(C)c(S(=O)(=O)N2CCCC(OCC(=O)NCC3CCC(C(c4cccc(F)c4)N(C)C)CC3)C2)c(C)c1C` (centres unmarked) [Example 145, N-((4-((dimethylamino)(3-fluorophenyl)methyl)cyclohexyl)methyl)-2-(1-(4-methoxy-2,3,6-trimethylphenylsulfonyl)piperidin-3-yloxy)acetamide] here?
Answer: Its inhibition at 10 µM is 91%.

Question: And the inhibition at 1 µM [2]?
Answer: Its inhibition at 1 µM is 87%.

Question: With `COc1cc(C)c(S(=O)(=O)N2CCC(CCOCC(=O)NCC3CCC(C(c4ccccc4)N(C)C)CC3)CC2)c(C)c1C` (centres unmarked) [Example 146, N-((4-((dimethylamino)(phenyl)methyl)cyclohexyl)methyl)-2-(2-(1-(4-methoxy-2,3,6-trimethylphenylsulfonyl)piperidin-4-yl)ethoxy)acetamide] as the compound, how does the inhibition at 10 µM [1] read?
Answer: Its inhibition at 10 µM is 95%.

Question: What about the inhibition at 1 µM [2] of the same compound?
Answer: Its inhibition at 1 µM is 88%.

Question: With `CN(C)C(c1cccc(F)c1)C1CCC(CCNC(=O)COCC2CCCCN2S(=O)(=O)c2ccc(Cl)c(Cl)c2)CC1` (centres unmarked) [Example 147, 2-((1-(3,4-dichlorophenylsulfonyl)piperidin-2-yl)methoxy)-N-(2-(4-((dimethylamino)(3-fluorophenyl)methyl)cyclohexyl)ethyl)acetamide] as the compound, how does the inhibition at 10 µM [1] read?
Answer: The inhibition at 10 µM was 96%.

Question: And the inhibition at 1 µM [2]?
Answer: The inhibition at 1 µM was 90%.
